# Data reported in article PMC6357863, “Dithiocarbamate-inspired side chain stapling chemistry for peptide drug design” (Chemical Science, 2018).
# What was measured:
# [1] = target: T1, synthetic 24–108MDMX (p53-binding domain) (Homo sapiens, UniProt O15151); experiment: SPR-based competition binding assay on 15–29p53-immobilized CM5 chip, MDMX; details: 25 °C, MDMX at 100 nM, 10 mM HEPES, 150 mM NaCl, 0.005% P20, pH 7.4, free MDMX quantified on 15–29p53 chip, two replicates, three independent experiments
# T1 construct: made in house; host or cells: total chemical synthesis (native chemical ligation of 24-75 thioester with 76-108); no expression host
# T1 sequence (O15151 24-108): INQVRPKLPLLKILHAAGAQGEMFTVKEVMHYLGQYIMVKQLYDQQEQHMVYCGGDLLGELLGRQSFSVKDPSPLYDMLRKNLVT
# Experimental: and three independent experiments were performed.
# Fluorescence polarization (FP).
# (§1) As an additional positive control, we
# Tecan Infinite M1000 plate reader. […]
# additional incubation for 64 hours.
# Circular Dichroism (CD) Spectroscopy. […]
# (§2) from 10-50 μM. […] The spectra were […]
# of each peptide was calculated as reported previously. 12
# Stability in GSH. […] RP-
# circular dichroism = details: phosphate buffer (PB); pH 7.2; 20 °C; 10-50 uM
# [2] = Circular dichroism spectroscopy, helical content; assay type: physicochemical; details: CD, PB pH 7.2, 10-50 μM peptide, 20 °C
# Experimental: Circular Dichroism (CD) Spectroscopy.
# as §2
# HCT116 p53-/- cells = experiment: Cell viability assay (CCK8), HCT116 p53-/-; assay type: cell-based, human; details: concentrations of up to 50 μM, 8 h serum-free then 64 h with serum
# Experimental: (§3) and three independent experiments were performed. […]
# as §1
# (§4) Tecan Infinite M1000 plate reader.
# (§5) additional incubation for 64 hours. […]
# HCT116 p53+/+ cells = experiment: Cell viability assay (CCK8), HCT116 p53+/+; assay type: cell-based, human; details: concentrations of up to 50 μM, 8 h serum-free then 64 h with serum
# Experimental: as §3, §4, §5
# HCT116 cells = experiment: Cellular uptake by confocal microscopy; assay type: cell-based, human; details: 20 μM peptide N-terminally conjugated to FITC via aminocaproic acid, HCT116 p53+/+ cells, 4 h, fixed, DAPI
# Experimental: Although cationicity is not a universal molecular signature of cell-penetrating peptides, it plays a critical role in the ability of stapled peptides to traverse the cell membrane to exert biological activity.[10],[22],[28]
# Cellular uptake of DTCPMI. A fluorescent FITC moiety was appended via an aminocaproic acid to the N- […]
# and allowed to grow overnight. Cells were then incubated with 20 µM FITC-DTCPMI for 4 h. Cells were washed with Dulbecco's phosphate buffered saline, fixed with 4% (wt/vol) paraformaldehyde, finally incubated by DAPI to stain the cell nucleus. Imaged using an LSM 510 Zeiss Axiovert 200M (v4.0) confocal microscope. Images were analyzed using an LSM image browser. […]
# μM) in serum-free media for 8 hours. The cells were lysed (20 mM Tris-HCl pH 8.0, 0.8 % SDS, 1 mM PMSF, 1 U mL-1 benzonase nuclease) and the crude lysates were clarified by brief centrifugation and total protein concentration was determined by using the Pierce BCA protein assay. Aliquots containing 5 μg of total protein were run on 4-12% Bis-Tris polyacrylamide gels (Invitrogen). Proteins were detected by chemiluminescence reagent (Perkin Elmer) using antibodies specific for p53 (Santa Cruz Biotechnology), MDM2 (Santa Cruz Biotechnology), p21 (Merck Millipore), and β-actin (Sigma-Aldrich). […]
Kd [1] [nM],α-Helix (%) [2] [%],intracellular localization (confocal microscopy) (HCT116 cells),Structure (SMILES),helicity (circular dichroism) [%],anti-proliferative activity against HCT116 p53-/- (HCT116 p53-/- cells),anti-proliferative activity against HCT116 p53+/+ (HCT116 p53+/+ cells)
> 500,–,–,"CC(=O)N[C@H]1CCCCNC(=S)SC[C@@H](C(=O)N[C@@H](Cc2ccc(O)cc2)C(=O)N[C@@H](Cc2c[nH]c3ccccc23)C(=O)N[C@@H](CC(N)=O)C(=O)N[C@@H](CC(C)C)C(=O)N[C@@H](CC(C)C)C(=O)N[C@@H](CO)C(=O)N2CCC[C@H]2C(N)=O)NC(=O)[C@H](C)NC(=O)[C@H](Cc2ccccc2)NC(=O)[C@H](CO)NC1=O [PMI(1,5)-a]",6.5,–,–
–,16.6,–,CC(=O)N[C@H](C(=O)N[C@@H](CO)C(=O)N[C@@H](Cc1ccccc1)C(=O)N[C@@H](CCCCN)C(=O)N[C@@H](CCC(N)=O)C(=O)N[C@@H](Cc1ccc(O)cc1)C(=O)N[C@@H](Cc1c[nH]c2ccccc12)C(=O)N[C@@H](CS)C(=O)N[C@@H](CC(C)C)C(=O)N[C@@H](CC(C)C)C(=O)N[C@@H](CO)C(=O)N[C@@H](CCCNC(=N)N)C(N)=O)[C@@H](C)O [^DTCPMI Ctrl.],16.6,no anti-proliferative activity,no anti-proliferative activity
–,–,diffused intracellular localization,CC(=O)N[C@H](C(=O)N[C@@H](CO)C(=O)N[C@@H](Cc1ccccc1)C(=O)N[C@H]1CCCCNC(=S)SC[C@@H](C(=O)N[C@@H](CC(C)C)C(=O)N[C@@H](CC(C)C)C(=O)N[C@@H](CO)C(=O)N[C@@H](CCCNC(=N)N)C(N)=O)NC(=O)[C@H](Cc2c[nH]c3ccccc23)NC(=O)[C@H](Cc2ccc(O)cc2)NC(=O)[C@H](CCC(N)=O)NC1=O)[C@@H](C)O [^DTCPMI],62.2,–,–
